Laboratory results as given in ChEMBL document CHEMBL4393685, “Synthesis and evaluation of pyrimidoindole analogs in umbilical cord blood ex vivo expansion” (Eur J Med Chem, 2019).

Key:
Format in all cases: functional
[1] = Stimulation of ex vivo expansion of human CD34+ cells assessed as CD34+CD38- level at 0.01 to 1 uM incubated for 7 days supplemented with 50% fresh medium containing cytokines every other day by flow cytometry (reference value: 19.10 +/- 0.35%)
[2] = Stimulation of ex vivo expansion of human CD34+ cells assessed as CD34+CD38- level incubated for 7 days supplemented with 50% fresh medium containing cytokines every other day by flow cytometry
[3] = Stimulation of ex vivo expansion of human CD34+ cells assessed as CD34+/CD38- level at 0.01 to 1 uM incubated for 7 days supplemented with 50% fresh medium containing cytokines every other day by flow cytometry relative to control
[4] = Homo sapiens, 168 h, read-out: EC50

Row | EC50 [2, 4] | SMILES | Activity [1] | EC50 [2] | fold change (FC) [3]
1 |  | Cn1nnc(-c2ccc3[nH]c4nc(Cc5ccccc5)nc(NCCc5ccc(O)cc5)c4c3c2)n1 | 20.65% | Nd(Toxic) | 1.08
2 |  | CNC(=O)c1ccc(Nc2nc(Cc3ccccc3)nc3[nH]c4ccc(-c5nnn(C)n5)cc4c23)cc1 | 21.83% | Nd(Toxic) | 1.14
3 |  | Cn1nnc(-c2ccc3[nH]c4nc(Cc5ccccc5)nc(NCCO)c4c3c2)n1 | 18.99% | Nd(Toxic) | 0.99
4 |  | Cn1nnc(-c2ccc3[nH]c4nc(Cc5ccccc5)nc(Nc5ccc(F)c(Cl)c5)c4c3c2)n1 | 20.65% | Nd(Toxic) | 1.08
5 | 30 nM | COc1cc2c(cc1OC)CN(CCNc1nc(Cc3ccccc3)nc3[nH]c4ccc(-c5nnn(C)n5)cc4c13)CC2 | 21.93% |  | 1.27
6 | 56.2 nM | C#Cc1cccc(Nc2nc(Cc3ccccc3)nc3[nH]c4ccc(-c5nnn(C)n5)cc4c23)c1 | 25.99% |  | 1.36
7 | 65.2 nM | COc1ccc(CCNc2nc(Cc3ccccc3)nc3[nH]c4ccc(-c5nnn(C)n5)cc4c23)cc1OC | 23.63% |  | 1.24
8 | 157 nM | Cn1nnc(-c2ccc3[nH]c4nc(Cc5ccccc5)nc(N5CCNCC5)c4c3c2)n1 | 24.69% |  | 1.29
9 | 359 nM | Cn1nnc(-c2ccc3[nH]c4nc(Cc5ccccc5)nc(N5CCC(CO)CC5)c4c3c2)n1 | 20.29% |  | 1.06
10 |  | Cn1nnc(-c2ccc3[nH]c4nc(Cc5ccccc5)nc(NCCNC(=O)c5ccc6ccccc6n5)c4c3c2)n1 | 20.89% | Nd(Toxic) | 1.09
11 |  | Cc1cc(Cl)ccc1Nc1nc(Cc2ccccc2)nc2[nH]c3cc(-c4nnn(C)n4)ccc3c12 | 15.37% | Nd(Toxic) | 0.8
12 | 27.7 nM | Cn1nnc(-c2ccc3[nH]c4nc(Cc5ccccc5)nc(NCCc5c[nH]c6ccccc56)c4c3c2)n1 | 21.72% |  | 1.14
13 |  | C#Cc1cccc(Nc2nc(Cc3ccccc3)nc3[nH]c4cc(-c5nnn(C)n5)ccc4c23)c1 | 16.98% | Nd(Toxic) | 0.89
14 |  | Cn1nnc(-c2ccc3[nH]c4nc(Cc5ccccc5)nc(Nc5ccccc5)c4c3c2)n1 | 18.02% | Nd(Toxic) | 0.94
15 | 167 nM | CC(O)CNc1nc(Cc2ccccc2)nc2[nH]c3ccc(-c4nnn(C)n4)cc3c12 (stereo unspecified) | 31.2% |  | 1.63
16 |  | Cn1nnc(-c2ccc3[nH]c4nc(Cc5ccccc5)nc(N[C@H]5CC[C@H](N)CC5)c4c3c2)n1 | 18.72% | Nd(Toxic) | 0.98
17 |  | Cn1nnc(-c2ccc3c(c2)[nH]c2nc(Cc4ccccc4)nc(Nc4ccc(F)c(Cl)c4)c23)n1 | 15.79% | Nd(Toxic) | 0.83
18 |  | Cn1nnc(-c2ccc3c(c2)[nH]c2nc(Cc4ccccc4)nc(NCCc4c[nH]c5ccccc45)c23)n1 | 19.73% | Nd(Toxic) | 1.03
19 | 972 nM | Cn1nnc(-c2ccc3c(c2)[nH]c2nc(Cc4ccccc4)nc(NC4CCOCC4)c23)n1 | 30.87% |  | 1.62
20 |  | CN(C)c1nc(Cc2ccccc2)nc2[nH]c3cc(-c4nnn(C)n4)ccc3c12 | 15.91% | Nd(Toxic) | 0.83
21 |  | Cn1nnc(-c2ccc3[nH]c4nc(Cc5ccccc5)nc(NCc5ccccc5)c4c3c2)n1 | 23.92% | Nd(Toxic) | 1.25
22 | 473 nM | Cn1nnc(-c2ccc3c(c2)[nH]c2nc(Cc4ccccc4)nc(N[C@H]4CC[C@H](O)CC4)c23)n1 | 50.15% |  | 2.63
